Broadly, the IC50 is the midpoint of a concentration-inhibition curve.

This is an account of results in US5298509A, “Octahydronaphthoquinolizines, and methods of making and using thereof” (priority 1992, dated 1994).

In one test the test system is sigma receptor. As to conditions: cited from earlier work.
For test [1], the system named is sham-feeding rat. Description: Sucrose ingestion (sham intake) in the sham-feeding rat. The conditions noted are these: (+)-SKF 10,047 5 mg/kg i.p.; BMY 14802 4 mg/kg i.p.; haloperidol 0.1 mg/kg i.p.; 20% sucrose, 30-min test, N=6. It is filed as in vivo. An excerpt:
As a non-limiting example, distinguishing between sigma receptor modulation and dopamine modulation may be accomplished using a D2 distinguishing assay, such as a behavioral assay system which discriminates the effects of dopamine D2 antagonists from sigma modulators or agents. A non-limiting example of a D2 /sigma distinguishing assay system involves quantification of ingestion of sucrose in a sham-feeding rat, where dopamine plays a critical role in the mediation of this behavior. See Schneider, L. H. et al. Eur. J. Pharmacol. 186:61-70 (1990) which is entirely incorporated herein by reference. […] The principal factor which compels the animal to maintain ingestion is the sweet taste of the sucrose solution; the involvement of the ascending mesolimbic dopamine system in this effect appears to be manifested as a modulation of the hedonic potency of the orosensory event (sweet taste). […] Neurosci. Abstr. 16:1028 (1990) which references are incorporated entirely herein by reference.
Differentiation of sigma and dopamine activities are provided by a behavioral assay system which effectively discriminates the effects of dopamine D-2 antagonists from sigma agents. The assay system involves quantification of ingestion of sucrose in the sham-feeding rat.

The test system of test [2] is sham-feeding rat. In words: Microstructural analysis of licking/ingestive behavior in the sham-feeding rat. The conditions noted are these: SKF 5 mg/kg, BMY 4 mg/kg, HAL 0.1 mg/kg, i.p.; for interlick intervals (in words): range 0-250 msec. The class given is in vivo. An excerpt:
Motoric components of the ingestive behavior may be differentiated from the "rewarding", sensory components by the use of microstructural analysis, a computer-controlled device which records the time at which each animal licks, to the nearest fractional millisecond. Analysis of licking and ingestive behavior in bursts is monitored through a fixed time test such that sigma agents may influence ingestive behavior either through the motor output systems or through nigrostriatal dopamine systems. The role for sigma sites in motor output systems include those muscles which are associated with licking, biting, and swallowing.
This consists of the use of a computer-controlled device which records the time at which each animal licks, to the nearest fractional millisecond. This then allows analysis of licking and ingestive behavior in bursts through a 30-minute test.
Using this behavioral assay system, with peripheral administration of the various selective drugs, rats (N=6) received 20% sucrose during a 30-min test, such that there was no effect of the sigma agents (+)-SKF 10,047 (5 mg/kg, i.p.; SKF) or BMY 14802 (4 mg/kg, i.p.; BMY) depending upon the volume of the sucrose solution which was ingested. […] These changes are attributed to a shift in the mean of the distribution histogram of interlick intervals. […] The shift in interlick interval distribution is expected to arise from occupancy of hindbrain sigma sites, possibly in the reticular formation, which are involved in definition of the lick rate in the rat.

Test [3] has as its system sigma versus dopamine D2 receptors. As to conditions: cited from earlier work.
The subject of test [4] is sigma receptors. Description: Sigma binding assay, (3H)-haloperidol, bovine cerebellar homogenates. As to conditions: bovine cerebellar preparation. Here is the method: (§1) As a non-limiting subexample, a sigma binding assay can use cerebellar tissue extracts to bind sigma receptor selectively by (^3 H)-halopendol with spiperone used to inhibit-binding to D2 receptors. […] These ligands are incubated at 30° C. with tissue (rat liver, rat cerebellum) homogenates for a 45 min period. In these assays, tissue concentrations used a range from 0.1-0.5 mg protein/mL, and radioligand concentrations range from 50 pM-10 μM. […] Filters are dried and counted for (^3 H)-activity in a liquid scintillation counter. The amount of ligand bound to the tissue receptor is measured with the aid of computer analysis of the data, using the LIGAND or an equivalent algorithm.
(§2) Radioligand binding assays were performed on the tricyclic (cis-cis) hexahydrojulolidine (HHJ), the parent tetracyclic (cis,cis) OHNQ (I-1) and 9-methoxy OHNQ (I-4), for binding to D2 and sigma receptors synthesized according to Example 1. The D2 assays were performed on bovine striatal homogenates using 0.50 nM (^3 H)-spiperone in the presence of 250 μM ketanserin (to inhibit association with some 5-HT receptors and spirodecanone sites), with non-specific binding defined using 10 μM sulpiride according to known methods. The sigma binding assay was performed on bovine and rat cerebellar homogenates using 2.0 nM (^3 H)-haloperidol in the presence of 25 nM spiperone (to inhibit association with D2 dopamine receptors); non-specific binding was defined in the presence of 1 μM unlabeled haloperidol. […] Sigma receptor assays on rat brain preparations using (^3 H)-DTG and (^3 H)-Pentazocine as the radiolabels are performed with good results. […]
(§3) Ten to twenty point assays are performed in triplicate using either 4 nM (^3 H)-haloperidol, 4 nM (^3 H)-DTG or 0.4 nM (^3 H)-DTG (New England Nuclear) as radiolabels, on rat liver, rat cerebellar or bovine cerebellar homogenates. […] Radioactivity is counted the following day at 40% efficiency.

The test system of test [5] is sigma receptors. Description: Sigma binding assay, (3H)-haloperidol, rat cerebellar homogenates. As to conditions: for binding to sigma sites (in words): rat cerebellar preparation. As for the experimental part:
as §1
(§4) Radioligand binding assays were performed on the tricyclic (cis-cis) hexahydrojulolidine (HHJ), the parent tetracyclic (cis,cis) OHNQ (I-1) and 9-methoxy OHNQ (I-4), for binding to D2 and sigma receptors synthesized according to Example 1. The D2 assays were performed on bovine striatal homogenates using 0.50 nM (^3 H)-spiperone in the presence of 250 μM ketanserin (to inhibit association with some 5-HT receptors and spirodecanone sites), with non-specific binding defined using 10 μM sulpiride according to known methods. The sigma binding assay was performed on bovine and rat cerebellar homogenates using 2.0 nM (^3 H)-haloperidol in the presence of 25 nM spiperone (to inhibit association with D2 dopamine receptors); non-specific binding was defined in the presence of 1 μM unlabeled haloperidol. […] Sigma receptor assays on rat brain preparations using (^3 H)-DTG and (^3 H)-Pentazocine as the radiolabels are performed with good results. […] Additional assays have been performed for D-1 activity (using (^3 H)-SCH23390), and for α-1 and α-2 activity as well as several 5-HT subtypes (5-HT-1-a, 5-HT-3, 5-HT uptake site).
Crude tissue homogenates are prepared by the following general procedure. Frozen tissue is thawed and homogenized in a buffer containing 50 mM Tris-HCI, 120 mM NaCl, 1 mM MgCl2, and 5 mM KCl, pH 8.0. This tissue suspension is sedimented at 100,000×g for a 30 min. period. Following centrifugation, the supernatant is discarded and the resultant pellet is resuspended in the same buffer solution, and respun as previously described.
Ten to twenty point assays are performed in triplicate using either 4 nM (^3 H)-haloperidol, 4 nM (^3 H)-DTG or 0.4 nM (^3 H)-DTG (New England Nuclear) as radiolabels, on rat liver, rat cerebellar or bovine cerebellar homogenates. The concentration of the displacing agent generally ranges between 0.2 nM and 64 μM in a final volume of 2 mL. Non-specific binding is defined by the presence of 1 μM unlabeled haloperidol. Spiperone at a concentration of 25 nM is added in the assays performed with (^3 H)-haloperidol in order to block D2 receptor sites. The buffer system employed is as in the tissue preparation as presented herein. Incubation is carried out for one hour at room temperature after addition of the tissue. Samples are rapidly filtered through Schleicher and Schuell #32 glass filters presoaked with 0.1% polyethyleneimine, on a 24-position cell harvester (Brandel). The filters are washed with ice-cold 10 mM Tris buffer, pH 7.7, and then placed in 2 mL of scintillation fluid. Radioactivity is counted the following day at 40% efficiency.

A further test relates to PCP site. The conditions noted are these: cited from earlier work.
For a further test, the system named is D2 receptor. In words: Dopamine D2 binding assay, (3H)-spiperone, bovine striatal homogenates. Here is the method: as §4
A further test relates to 5-HT-2 receptor. Description: 5-HT-2 receptor activity assay. It is filed as binding.
Test [6] has as its target sigma receptors. In words: Sigma receptor binding, rat liver preparations. Here is the method: as §1, §2, §3
[7] abbreviates: solubilized rat liver preparations.

On to `C=CCN1CCC2(C)c3cc(O)ccc3CC1C2C` (single isomer, unassigned; (+)) [(+)-SKF 10,047], for which the “enantioselectivity for sigma sites (in words)” value with sigma receptor ((+)-NANM versus (-)-NANM) was “more potent than (-)-NANM”. Further, in the test on sham-feeding rat [1], the “effect on volume of sucrose solution ingested (in words)” value is given as “no effect”. For the same molecule, in the test on sham-feeding rat [2], the “mean lick cluster size (in words)” value is on record as “not SKF or HAL” and the “interlick intervals (in words)” value is “not SKF or HAL”.
In the case of `CCCN1CCCC(c2cccc(O)c2)C1` (stereo not drawn) [3-PPP], in test [3], the “affinity for sigma versus dopaminergic receptors (in words)” value is on record as “higher affinity for sigma receptor sites than for dopaminergic receptors”.
Turning to `COc1ccc2c(c1)C1CCCN3CCCC(C2)C13` (stereo not drawn) [11-methoxy OHNQ], the “binding to sigma sites (in words)” value is “weak sigma binding” with sigma receptors [4] and “considerably stronger binding” in the test on sigma receptors [5]. Moreover, the IC50 on sigma receptors [4] (2.0 nM (3H)-haloperidol, 25 nM spiperone) was found to be 1500 nM; at sigma receptors [5] (rat cerebellar membranes, 2.0 nM (3H)-haloperidol, 25 nM spiperone), 300 nM. In addition, the “sigma potency compared with reference compounds (in words)” value in the test on sigma receptors [5] (rat cerebellar membranes) was “on the order of that observed for (+)-NaMM, (+)-3-PPP, as well as cis-fused tricyclic octahydrobenzo-(f) quinolines with hydroxyl groups on the aromatic ring”. The “sigma binding, rat versus bovine (in words)” value in the test on sigma receptors [5] (rat cerebellar vs bovine cerebellar receptors) was “bound more specifically and with a higher affinity to rat cerebellar sigma receptors, than to bovine cerebellar receptors”.
Turning to `CCCN1CCC[C@H](c2cccc(O)c2)C1` [(+)-(^3 H)-3-PPP, (+)-(^3 H)-3-(+)-3-(3-hydroxyphenyl) N-(1-propyl)piperidine], the “affinity for sigma receptors (in words)” value in the test on sigma receptor was “labeled with high affinity”.
In the case of `C=CCN1CCC2(C)c3cc(O)ccc3CC1C2C` (stereo not drawn) [(^3 H)-NANM, N-allylnormetazocine], in the test on sigma receptor, the “affinity for sigma receptors (in words)” value is given as “high affinity”. For the same molecule, the “affinity toward PCP sites (in words)” value in the test with PCP site is listed as “low affinity”.
As for `c1ccc(C2(N3CCCCC3)CCCCC2)cc1` [(^3 H)-PCP, phencyclidine], in the test with sigma receptor, the “affinity for sigma receptors (in words)” value is recorded as “not labeled”.
Take `c1csc(C2(N3CCCCC3)CCCCC2)c1` [(^3 H)-TCP, (^3 H)-1-((2-thienyl)cyclohexyl)piperidine]: in the test on sigma receptor, the “affinity for sigma receptors (in words)” value is on record as “not labeled”.
For the molecule `COc1ccc2c(c1)C1CCCN3CCCC(C2)C13` (stereo not drawn) [(trans,trans) 11-methoxy OHNQ], in the test with D2 receptor, the “activity at D-2 receptor sites (in words)” value was “modest but selective activity”. Also, in the test on 5-HT-2 receptor, the “activity at 5-HT-2 receptor sites (in words)” value is on record as “modest but selective activity”.
With `Cl.N#Cc1cccnc1N1CCN(CCCCN2C(=O)SC3(CCCC3)C2=O)CC1` [BMY 13980], the “affinity for sigma receptors (in words)” value with sigma receptor is “moderate to high affinity”.
Turning to `OC(CCCN1CCN(c2ncc(F)cn2)CC1)c1ccc(F)cc1` (stereo not drawn) [BMY 14802], the “affinity for sigma receptors (in words)” value in the test on sigma receptor is recorded as “moderate to high affinity”. In addition, in the test on sham-feeding rat [1], the “effect on volume of sucrose solution ingested (in words)” value was “no effect”. In the test with sham-feeding rat [2], the “mean lick cluster size (in words)” value is on record as “smaller mean lick cluster size” and the “interlick intervals (in words)” value is “significant decrease of interlick intervals”. For the same molecule, in test [3], the “selectivity for sigma versus dopamine D2 receptors” value was 10 to 15 fold. In addition, the “affinity toward PCP sites (in words)” value in the test with PCP site is “little or no affinity”.
For `C1CC2CCCN3CCCC(C1)C23` (stereo not drawn) [HHJ, hexahydrojulolidine], the “binding to sigma sites (in words)” value in the test with sigma receptors [4] and in the test on sigma receptors [5] was “did not exhibit binding” in each case.
For the molecule `Cl.Fc1ccc2[nH]c3c(c2c1)CN(CCCc1cccnc1)CC3` [WY 47,384], the “affinity for sigma receptors (in words)” value with sigma receptor is “moderate to high affinity”.
As for `O=C1CC2(CCCC2)CC(=O)N1CCCCN1CCN(c2ncccn2)CC1` [buspirone], the “affinity for sigma receptors (in words)” value with sigma receptor is on record as “high affinity”.
For `C=CCN1CC[C@]23c4c5ccc(O)c4O[C@H]2C(=O)CC[C@@]3(O)[C@H]1C5` [naloxone], in the test with sigma receptor (typical opiate receptor antagonists), the “block of (3H)-NANM binding (in words)” value is on record as “not blocked”.
Consider `CCN1CCC[C@H]1CNC(=O)c1c(OC)ccc(Br)c1OC` [remoxipride], for which the “affinity for sigma receptors (in words)” value in the test with sigma receptor is recorded as “moderate to high affinity”. Besides, the “affinity toward PCP sites (in words)” value in the test on PCP site was “little or no affinity”.
For `C[C@@H]1CN(CCCn2c3ccccc3c3ccccc32)C[C@H](C)N1` [rimcazole], in the test with sigma receptor, the “affinity for sigma receptors (in words)” value is recorded as “moderate to high affinity”. In addition, the “selectivity for sigma versus dopamine D2 receptors” value in test [3] is listed as 10 to 15 fold. Besides, the “affinity toward PCP sites (in words)” value with PCP site is recorded as “little or no affinity”.
With `O=C(CCCN1CCC2(CC1)C(=O)NCN2c1ccccc1)c1ccc(F)cc1` [spiperone], the “affinity for sigma receptors (in words)” value in the test on sigma receptor is “not spiperone”.
For the molecule `O=C1CC2(CCCC2)CC(=O)N1CCCCN1CCN(c2nsc3ccccc23)CC1` [tiospirone], the “affinity for sigma receptors (in words)” value with sigma receptor was “moderate to high affinity”.
With `c1ccc2c(c1)CC1CCCN3CCCC2C13` (stereo not drawn) [unsubstituted (trans,trans) OHNQ], the “activity at D-2 receptor sites (in words)” value in the test with D2 receptor is “modest but selective activity”. The “activity at 5-HT-2 receptor sites (in words)” value in the test on 5-HT-2 receptor was “modest but selective activity”. Moreover, the IC50 on sigma receptors [6] (crude liver homogenates) amounted to 157 nM. On sigma receptors [6] (setting [7]), the IC50 stood at 87 nM and the “affinity to sigma receptors (in words)” value is given as “high affinity”.
